The values that follow come from patent publication US20260364184A1, “COMPOUND BASED ON OXOISOINDOLINYL-SUBSTITUTED TETRAHYDROPYRIMIDINE-DIONE AND USE THEREOF” (GLUETACS THERAPEUTICS (SHANGHAI) CO., LTD., priority 2023, published 2026).

Assay [1] relates to Human gastric cancer cell line MGC803. Briefly: Inhibition of MGC803 tumor cell proliferation (CellTiter luminescent viability). The assay is classed as cell-based. To be noted: Table IA1, IRAK4 inhibitor-based compounds; MGC803, 96 hours; read-out: Inhibitory activity (IC50, nM) on tumor cell proliferation, MGC803. Here is the method:
(§1) The tumor cells used herein were cultured in a cell culture medium listed in table 3 at 37 °C in an incubator with 5% CO2. Prior to experimentation, all cell lines used were correctly identified by STR profiling, and tested negative for mycoplasma contamination using a mycoplasma detection kit through routine screenings.
(§2) The IC50 values of the compounds of the present disclosure (including the compounds in Table 1, Table 2, and Examples 1-468) were determined using the CellTiter-Meiluncell Luminescent Cell Viability Assay Kit from Dalian Meilun Biotech Co., Ltd. The detailed procedure is as follows: Tumor cells were seeded in 96-well cell culture plates at the densities specified in Table 4. On the following day, the test compounds of the present disclosure were subjected to serial dilution. The dilution can be performed according to one of the following two methods: • (1) The first dilution method: The test compounds of the present disclosure (including the compounds in Table 1, Table 2, and Examples 1-468) were subjected to 5-fold serial dilutions starting from a highest concentration of 2000 μM, resulting in a total of 9 concentrations from high to low (2000, 400, 80, 16, 3.2, 0.64, 0.128, 0.0256, 0.00512 μM). Subsequently, 0.5 μL of the test compound dilution was transferred into the 96-well plate containing the cells, with each well containing 100 μL of cell culture medium. […] Into the 96-well plate, the diluted test compounds and corresponding detection reagents were added, resulting in final test compound concentrations of 500 nM and 10 nM, respectively. The experimental procedure is described below using the diluted 2 μM test compound as an example.
(§3) 0.5 μL of the aforementioned diluted compound of the present disclosure (including the compounds in Table 1, Table 2, and Examples 1-468) was added to the seeded cells in 100 μL of medium, yielding a final test compound concentration of 10 nM. After the cells were treated with the compounds of the present disclosure for a specified period, the cell viability assay reagent was added to the culture medium according to the kit's instructions to determine cell viability. […] All controls were treated using the same procedure as the compounds of the present disclosure. The growth inhibition curves for the compounds of the present disclosure were plotted using Prism GraphPad software, and the IC50 values were calculated therefrom.

Assay [2] relates to Human T lymphocytic leukemia cell line (Jurkat). The experiment in a line: Inhibition of Jurkat cell proliferation (CellTiter luminescent viability). To be noted: Table IA1, IRAK4 inhibitor-based, 96 hours, read-out: Inhibitory activity (IC50, nM) on tumor cell proliferation, Jurkat. The assay is classed as cell-based.
The subject of assay [3] is Human large cell immunoblastic lymphoma cell line SR. The experiment in a line: Inhibition of SR cell proliferation (CellTiter luminescent viability). To be noted: Table IA1, IRAK4 inhibitor-based, 96 hours, read-out: Inhibitory activity (IC50, nM) on tumor cell proliferation, SR. The assay is classed as cell-based. In outline:
(§4)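 IC50 is fitted from luminescent viability (CellTiter-Meiluncell) curves. Nine-point, 5-fold dilution series (top stock 2000 μM) are added at 0.5 μL per 100 μL medium to cells plated the day before, with growth at 37 °C and 5% CO2.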

Assay [4] concerns Human Multiple myeloma cell line (MM.1S). Briefly: Inhibition of MM.1S cell proliferation (CellTiter luminescent viability). It counts as cell-based. The note with it: Table IA1, IRAK4 inhibitor-based, 96 hours, read-out: Inhibitory activity (IC50, nM) on tumor cell proliferation, MM.1S. In outline:
as §4

The next assay relates to JEKO-1. The experiment in a line: Inhibition of JEKO-1 cell proliferation (CellTiter luminescent viability). The assay is classed as cell-based, human. To be noted: Table IA1, IRAK4 inhibitor-based; JEKO-1, 96 hours; read-out: Inhibitory activity (IC50, nM) on tumor cell proliferation, JEKO-1. Here is the method:
as §1, §2, §3

Assay [5] has as its system Human malignant melanoma cell line (A375). Briefly: Inhibition of A375 cell proliferation (CellTiter luminescent viability). The note with it: A-375, Table III (II1), EZH2 inhibitor-based, 96 hours; for inhibition at 0.01 µM: A375, 10 nM, read-out: Inhibition Rate at 10 nM (%); for inhibition at 0.5 µM: A375, 500 nM, read-out: Inhibition Rate at 500 nM (%). As for the experimental part: as §1, §2, §3

Assay [6] relates to Human neuroblastoma cell line (SK-N-AS). Briefly: Inhibition of SK-N-AS cell proliferation (CellTiter luminescent viability). To be noted: Table II2, EZH2 inhibitor-based, 96 hours; for inhibition at 0.01 µM: 10 nM, read-out: Inhibition Rate at 10 nM (%); for inhibition at 0.5 µM: 500 nM, read-out: Inhibition Rate at 500 nM (%). It counts as cell-based.
In the next assay the target is T1, EZH2 (Homo sapiens, UniProt Q15910+Q96SW2).
T1 construct: expression of target proteins in cells; endogenous in cells
Briefly: Western blot degradation of EZH2. The note with it: hPBMC Cell; 24 hours. The assay is classed as cell-based. As for the experimental part:
Conventional Western blot assay was performed to evaluate the effects of the compounds of the present disclosure on the expression of target proteins in cells.
(1) Cell Seeding and Protein Harvesting: The selected cells were processed according to the cell seeding procedure and protein harvesting procedure in Table II-2.
(2) To the collected supernatant, 5×SDS sample loading buffer was added, followed by denaturation at 95 °C for 5 minutes. The denatured samples were then separated by SDS-PAGE electrophoresis on a polyacrylamide gel. Proteins were transferred to a nitrocellulose membrane (0.45 μm NC membrane), blocked with blocking buffer at room temperature for 1 hour, and subjected to antibody incubation and development procedures according to the antibody manufacturer's instructions (Cell Signaling Technology).
Half-Maximal Degradation Concentration value (the drug concentration required for degrading proteins by 50%, abbreviated as DC50) reads method: comparing the grayscale values of Western blot bands from drug-treated samples with those from blank DMSO-treated controls, and identifying the drug concentration range at which the grayscale value is half that of the DMSO-treated control bands.
DC50 values can be calculated using ImageJ software to measure grayscale values of Western blot bands from drug-treated samples. The concentration-response curve is fitted to estimate the drug concentration corresponding to half the grayscale value.
Target protein remaining (%) refers to the percentage of target protein remaining in cells after treatment with protein degrader compounds.
Calculation method for target protein remaining (%): Use ImageJ software to measure grayscale values of Western blot bands from drug (protein degrader)-treated samples. The grayscale value of drug-treated bands is divided by that of internal control protein bands, and the resulting quotient is normalized to obtain the relative percentage of remaining target protein after protein degrader treatment.
Target protein degradation rate (%)=1−target protein remaining (%).
For orientation: A western blot detects proteins with antibodies after separation by electrophoresis.

Structures are written as SMILES.

T1 sequence (Q15910 whole entry): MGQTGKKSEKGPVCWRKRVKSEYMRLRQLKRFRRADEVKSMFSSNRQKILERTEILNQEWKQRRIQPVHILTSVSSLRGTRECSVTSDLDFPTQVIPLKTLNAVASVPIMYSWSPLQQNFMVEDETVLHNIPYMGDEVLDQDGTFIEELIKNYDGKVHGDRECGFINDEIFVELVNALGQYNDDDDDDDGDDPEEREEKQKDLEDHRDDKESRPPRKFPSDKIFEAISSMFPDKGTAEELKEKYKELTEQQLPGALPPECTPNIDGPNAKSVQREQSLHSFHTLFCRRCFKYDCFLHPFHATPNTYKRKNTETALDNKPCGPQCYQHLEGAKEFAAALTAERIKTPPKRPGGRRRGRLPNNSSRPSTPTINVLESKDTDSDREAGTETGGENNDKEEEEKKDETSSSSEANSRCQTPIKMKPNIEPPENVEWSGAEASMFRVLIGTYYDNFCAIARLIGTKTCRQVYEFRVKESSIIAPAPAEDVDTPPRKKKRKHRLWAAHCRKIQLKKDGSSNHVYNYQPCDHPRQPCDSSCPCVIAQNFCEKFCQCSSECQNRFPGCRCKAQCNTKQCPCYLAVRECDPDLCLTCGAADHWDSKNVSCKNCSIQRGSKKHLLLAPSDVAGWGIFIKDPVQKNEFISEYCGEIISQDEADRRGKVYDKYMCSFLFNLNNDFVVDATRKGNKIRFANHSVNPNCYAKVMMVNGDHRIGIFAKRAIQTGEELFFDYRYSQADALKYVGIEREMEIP
T1 sequence (O75530 whole entry partner): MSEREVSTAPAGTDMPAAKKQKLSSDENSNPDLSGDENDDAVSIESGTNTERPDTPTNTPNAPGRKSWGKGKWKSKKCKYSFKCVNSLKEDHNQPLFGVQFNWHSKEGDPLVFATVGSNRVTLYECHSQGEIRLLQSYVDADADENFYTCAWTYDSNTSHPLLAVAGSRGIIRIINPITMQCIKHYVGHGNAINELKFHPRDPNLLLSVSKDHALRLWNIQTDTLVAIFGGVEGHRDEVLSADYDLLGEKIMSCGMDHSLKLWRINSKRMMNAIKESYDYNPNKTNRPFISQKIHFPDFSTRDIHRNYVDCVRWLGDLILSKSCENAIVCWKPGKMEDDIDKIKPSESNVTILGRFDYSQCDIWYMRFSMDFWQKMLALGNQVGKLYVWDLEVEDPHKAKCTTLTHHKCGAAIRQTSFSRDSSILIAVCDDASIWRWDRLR
T1 sequence (Q15022 whole entry partner): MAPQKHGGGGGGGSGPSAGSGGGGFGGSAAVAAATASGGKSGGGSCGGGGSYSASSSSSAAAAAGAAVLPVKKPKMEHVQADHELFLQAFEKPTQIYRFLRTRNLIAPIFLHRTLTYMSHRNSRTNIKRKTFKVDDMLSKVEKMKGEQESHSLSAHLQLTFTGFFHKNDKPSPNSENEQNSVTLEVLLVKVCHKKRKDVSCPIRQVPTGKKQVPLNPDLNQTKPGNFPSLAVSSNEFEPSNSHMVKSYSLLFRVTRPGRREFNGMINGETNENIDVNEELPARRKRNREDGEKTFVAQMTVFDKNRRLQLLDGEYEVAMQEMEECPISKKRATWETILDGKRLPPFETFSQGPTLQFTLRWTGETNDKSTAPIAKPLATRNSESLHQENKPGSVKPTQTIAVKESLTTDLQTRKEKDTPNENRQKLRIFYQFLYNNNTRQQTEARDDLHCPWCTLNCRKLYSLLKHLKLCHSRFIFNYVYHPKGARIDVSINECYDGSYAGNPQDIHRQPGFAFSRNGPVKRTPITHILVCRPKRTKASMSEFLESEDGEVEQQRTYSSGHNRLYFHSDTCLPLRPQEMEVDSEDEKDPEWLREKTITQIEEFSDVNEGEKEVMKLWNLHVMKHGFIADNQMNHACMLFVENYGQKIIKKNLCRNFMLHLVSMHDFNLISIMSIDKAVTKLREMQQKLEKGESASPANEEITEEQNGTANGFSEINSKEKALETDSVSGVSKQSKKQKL
T1 sequence (Q96SW2 whole entry): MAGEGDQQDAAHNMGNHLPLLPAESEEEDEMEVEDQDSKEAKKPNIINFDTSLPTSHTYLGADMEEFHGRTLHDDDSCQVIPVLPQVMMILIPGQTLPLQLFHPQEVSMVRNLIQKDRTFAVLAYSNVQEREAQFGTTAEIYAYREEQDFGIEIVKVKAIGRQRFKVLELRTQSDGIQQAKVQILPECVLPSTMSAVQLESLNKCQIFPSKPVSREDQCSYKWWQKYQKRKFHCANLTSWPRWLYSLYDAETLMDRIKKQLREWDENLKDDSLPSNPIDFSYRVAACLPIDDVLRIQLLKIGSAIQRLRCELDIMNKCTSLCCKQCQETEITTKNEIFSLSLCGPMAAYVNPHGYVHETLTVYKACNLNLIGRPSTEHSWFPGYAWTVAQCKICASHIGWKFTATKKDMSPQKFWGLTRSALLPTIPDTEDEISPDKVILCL
T1 sequence (Q16531 whole entry partner): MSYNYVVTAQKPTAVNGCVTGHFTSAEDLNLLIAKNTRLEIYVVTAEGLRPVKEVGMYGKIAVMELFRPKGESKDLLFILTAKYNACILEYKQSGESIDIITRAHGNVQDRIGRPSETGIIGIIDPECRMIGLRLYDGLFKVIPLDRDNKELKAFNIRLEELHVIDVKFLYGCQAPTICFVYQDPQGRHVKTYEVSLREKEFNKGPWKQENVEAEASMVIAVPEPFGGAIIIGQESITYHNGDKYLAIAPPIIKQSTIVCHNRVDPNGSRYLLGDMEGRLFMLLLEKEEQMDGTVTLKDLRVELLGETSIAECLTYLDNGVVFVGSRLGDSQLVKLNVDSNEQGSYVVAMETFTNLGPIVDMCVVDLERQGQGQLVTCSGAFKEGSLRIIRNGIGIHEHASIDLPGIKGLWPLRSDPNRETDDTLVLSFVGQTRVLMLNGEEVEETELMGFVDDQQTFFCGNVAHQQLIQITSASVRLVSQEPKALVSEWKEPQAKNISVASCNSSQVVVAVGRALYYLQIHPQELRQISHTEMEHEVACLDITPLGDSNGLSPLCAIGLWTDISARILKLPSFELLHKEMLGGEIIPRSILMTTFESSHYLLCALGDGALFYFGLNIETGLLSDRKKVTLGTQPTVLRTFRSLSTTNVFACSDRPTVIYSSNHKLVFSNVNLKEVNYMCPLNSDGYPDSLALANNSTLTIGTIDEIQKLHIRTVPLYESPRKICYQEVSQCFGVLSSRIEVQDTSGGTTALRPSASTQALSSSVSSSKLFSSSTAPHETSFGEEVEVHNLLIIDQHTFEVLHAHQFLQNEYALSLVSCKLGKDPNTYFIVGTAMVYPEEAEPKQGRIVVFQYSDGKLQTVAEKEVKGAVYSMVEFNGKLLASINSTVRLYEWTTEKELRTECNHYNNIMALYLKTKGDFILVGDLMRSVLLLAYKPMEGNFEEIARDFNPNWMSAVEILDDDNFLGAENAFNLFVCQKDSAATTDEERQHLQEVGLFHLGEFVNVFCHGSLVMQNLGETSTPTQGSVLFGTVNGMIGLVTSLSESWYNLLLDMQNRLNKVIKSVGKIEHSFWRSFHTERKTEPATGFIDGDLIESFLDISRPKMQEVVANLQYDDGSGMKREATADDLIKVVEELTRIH

For `O=C1CCN(N2Cc3cc(CN4CCN(c5ccc6c(c5)nc(NC(=O)c5cccc(C(F)(F)F)c5)n6[C@H]5CC[C@@H](CO)CC5)CC4)ccc3C2=O)C(=O)N1` [GT-04949, N-(5-(4-((2-(2,4-dioxotetrahydropyrimidin-1(2H)-yl)-1-oxoisoindolin-5-yl)methyl)piperazin-1-yl)-1-((1s,4s)-4-(hydroxymethyl)cyclohexyl)-1H-benzo[d]imidazol-2-yl)-3-(trifluoromethyl)benzamide], the IC50 in assay [1] lay in the range of 500 to 1000 nM; in assay [2], 500 to 1000 nM; in assay [3], 100 to 300 nM; in assay [4], 100 to 300 nM; in the assay on JEKO-1, 100 to 300 nM.
In general, inhibition refers to how much of the control response was suppressed. In the case of `CCCc1cc(C)[nH]c(=O)c1CNC(=O)c1cc(-c2ccc(N3CCC(N(C)Cc4ccc5c(c4)C(=O)N(N4CCC(=O)NC4=O)C5=O)CC3)nc2)cc2c1cnn2C(C)C` [GT-08421, 6-(6-(4-(((2-(2,4-dioxotetrahydropyrimidin-1(2H)-yl)-1,3-dioxoisoindolin-5-yl)methyl)(methyl)amino)piperidin-1-yl)pyridin-3-yl)-1-isopropyl-N-((6-methyl-2-oxo-4-propyl-1,2-dihydropyridin-3-yl)methyl)-1H-indazole-4-carboxamide], the inhibition at 0.01 µM in assay [5] lay in the range of 15 to 20%; in assay [6], 20 to 30%. Also, the inhibition at 0.5 µM in assay [5] and in assay [6] was 20 to 30% in each case. Also, the “Degradation of substrate protein EZH2 (substrate protein remaining %)” value (shortened to “Degradation … (substrate protein remaining %)”) on EZH2 was “A (0%≤substrate protein remaining %≤80%)”.
Consider `CCCc1cc(C)[nH]c(=O)c1CNC(=O)c1cc(-c2ccc(N3CCN(C4CCN(Cc5ccc6c(c5)CN(N5CCC(=O)NC5=O)C6=O)CC4)CC3)nc2)cc2c1cnn2C(C)C` [GT-08422, 6-(6-(4-(1-((2-(2,4-dioxotetrahydropyrimidin-1(2H)-yl)-1-oxoisoindolin-5-yl)methyl)piperidin-4-yl)piperazin-1-yl)pyridin-3-yl)-1-isopropyl-N-((6-methyl-2-oxo-4-propyl-1,2-dihydropyridin-3-yl)methyl)-1H-indazole-4-carboxamide], for which, in assay [6], the inhibition at 0.01 µM was 5 to 10% and the inhibition at 0.5 µM is 20 to 30%. For the same compound, the “Degradation … (substrate protein remaining %)” value at EZH2 is “A (0%≤substrate protein remaining %≤80%)”.
For `CCCc1cc(C)[nH]c(=O)c1CNC(=O)c1cc(-c2ccc(N3CCN(C4CCN(Cc5ccc6c(c5)C(=O)N(N5CCC(=O)NC5=O)C6=O)CC4)CC3)nc2)cc2c1cnn2C(C)C` [GT-08423, 6-(6-(4-(1-((2-(2,4-dioxotetrahydropyrimidin-1(2H)-yl)-1,3-dioxoisoindolin-5-yl)methyl)piperidin-4-yl)piperazin-1-yl)pyridin-3-yl)-1-isopropyl-N-((6-methyl-2-oxo-4-propyl-1,2-dihydropyridin-3-yl)methyl)-1H-indazole-4-carboxamide], in assay [5], the inhibition at 0.01 µM fell in the range of 20 to 30% and the inhibition at 0.5 µM was in the range of 30 to 40%. In assay [6], the inhibition at 0.01 µM lay in the range of 20 to 30% and the inhibition at 0.5 µM fell in the range of 40 to 50%. Moreover, on EZH2, the “Degradation … (substrate protein remaining %)” value is recorded as “A (0%≤substrate protein remaining %≤80%)”.
Regarding `CCN(c1cc(-c2ccc(N3CCN(Cc4ccc5c(c4)CN(N4CCC(=O)NC4=O)C5=O)CC3)cc2)cc(C(=O)NCc2c(C)cc(C)[nH]c2=O)c1C)C1CCOCC1` [GT-08510, N-((4,6-dimethyl-2-oxo-1,2-dihydropyridin-3-yl)methyl)-4′-(4-((2-(2,4-dioxotetrahydropyrimidin-1(2H)-yl)-1-oxoisoindolin-5-yl)methyl)piperazin-1-yl)-5-(ethyl(tetrahydro-2H-pyran-4-yl)amino)-4-methyl-[1,1′-biphenyl]-3-carboxamide], in assay [6], the inhibition at 0.01 µM lay within 15 to 20% and the inhibition at 0.5 µM was in the range of 20 to 30%. In addition, on EZH2, the “Degradation … (substrate protein remaining %)” value is “A (0%≤substrate protein remaining %≤80%)”.
`CCN(c1cc(-c2ccc(N3CCN(C4CCN(CC5CCN(c6ccc7c(c6)C(=O)N(N6CCC(=O)NC6=O)C7=O)CC5)CC4)CC3)cc2)cc(C(=O)NCc2c(C)cc(C)[nH]c2=O)c1C)C1CCOCC1` [GT-08524, N-((4,6-dimethyl-2-oxo-1,2-dihydropyridin-3-yl)methyl)-4′-(4-(1-((1-(2-(2,4-dioxotetrahydropyrimidin-1(2H)-yl)-1,3-dioxoisoindolin-5-yl)piperidin-4-yl)methyl)piperidin-4-yl)piperazin-1-yl)-5-(ethyl(tetrahydro-2H-pyran-4-yl)amino)-4-methyl-[1,1′-biphenyl]-3-carboxamide]: in assay [6], the inhibition at 0.01 µM fell in the range of 15 to 20% and the inhibition at 0.5 µM lay in the range of 20 to 30%. The “Degradation … (substrate protein remaining %)” value at EZH2 is given as “A (0%≤substrate protein remaining %≤80%)”.
